Results as given in ChEMBL document CHEMBL1687706, “Inhibition of human immunodeficiency virus type 1 replication in human cells by Debio-025, a novel cyclophilin binding agent” (Antimicrob Agents Chemother, 2008).
The source made the active and inactive calls. The rule behind the calls is not given here.

How the values were obtained:
[1] = Antiviral activity against HPV-18 infected in human HeLa cells assessed as inhibition of viral replication after 3 days; format: functional, cell-based; conditions: human papillomavirus 18, HeLa, 72 h; read-out: TC50 (the source's name)
[2] = Antiviral activity against HPV-33 infected in CK1 cells assessed as inhibition of viral replication after 7 days; format: functional, Human papillomavirus type 33; conditions: human papillomavirus 33, CK1, 168 h; read-out: TC50 (the source's name)
[3] = test system: Human immunodeficiency virus 1; assay: Antiviral activity against HIV1 subtype B JR-CSF infected in human PBMC assessed as inhibition of viral replication by ELISA; format: functional; conditions: Human immunodeficiency virus 1, JRCSF ISOLATE
[4] = test system: Human immunodeficiency virus 1; assay: Antiviral activity against HIV1 subtype B NL4-3 infected in human PBMC assessed as inhibition of viral replication by ELISA; format: functional, organism-based; conditions: Human immunodeficiency virus 1, subtype B NL4-3
[5] = test system: Human immunodeficiency virus 1; assay: Antiviral activity against HIV1 subtype B 92BR014 infected in human PBMC assessed as inhibition of viral replication by ELISA; format: functional, organism-based; conditions: Human immunodeficiency virus 1, subtype B 92BR014
[6] = cells; conditions: Mus musculus, PBMC
[7] = Antiviral activity against Simian immunodeficiency virus-mac 251 infected in human PBMC assessed as inhibition of viral replication by RT activity; format: functional
[8] = test system: Human immunodeficiency virus 1; assay: Antiviral activity against HIV-1 NL4-3 infected in human TZB cells assessed as inhibition of accumulation of early viral transcripts at 0.5 to 2.5 uM by RT-PCR; format: functional, organism-based
[9] = test system: Human immunodeficiency virus 1; assay: Antiviral activity against HIV1 subtype A 92RW016 infected in human PBMC assessed as inhibition of viral replication by ELISA; format: functional, organism-based; conditions: Human immunodeficiency virus 1, subtype A 92RW016
[10] = test system: Influenza B virus; assay: Antiviral activity against influenza B virus infected in MDCK cells assessed as inhibition of viral replication; format: functional, organism-based
[11] = test system: Jurkat; assay: Immunosuppressive activity in human Jurkat cells assessed as inhibition of PHA-phorbol myristate acetate induced beta-galactosidase activity at 21.5 uM; format: functional, cell-based
[12] = test system: Human immunodeficiency virus 1; assay: Antiviral activity against HIV1 subtype F 93BR020 infected in human PBMC assessed as inhibition of viral replication by ELISA; format: functional, organism-based; conditions: Human immunodeficiency virus 1, subtype F 93BR020
[13] = test system: Rattus norvegicus; assay: Immunosuppressive activity in Sprague-Dawley rat […] model assessed as percent T-helper cells at 25 mg/kg, po administered once daily for 28 days by flow cytometry; format: functional
[14] = test system: Feline coronavirus; assay: Antiviral activity against Feline coronavirus infected in CRFK assessed as inhibition of viral replication; format: functional, organism-based; conditions: Alphacoronavirus 1, CRFK
[15] = Cytotoxicity against human embryonic lung cells; format: cell-based; conditions: read-out: TC50 (the source's name)
[16] = test system: Simian immunodeficiency virus; assay: Antiviral activity against Simian immunodeficiency virus PBj infected in human PBMC assessed as inhibition of viral replication by RT activity; format: functional, organism-based
[17] = test system: Vaccinia virus; assay: Antiviral activity against Vaccinia virus infected in human embryonic lung cells assessed as reduction in viral yield measured after 3 days; format: functional, organism-based; conditions: Orthopoxvirus vaccinia, 72 h
[18] = test system: Human immunodeficiency virus 1; assay: microbe, parasite or virus in culture; conditions: Human immunodeficiency virus 1, 3B, MT4
[19] = test system: SARS-CoV; assay: Antiviral activity against SARS coronavirus infected in african green monkey Vero cells assessed as inhibition of viral replication; format: functional, organism-based; conditions: Severe acute respiratory syndrome-related coronavirus
[20] = test system: Human immunodeficiency virus 1; assay: Antiviral activity against HIV1 subtype B TEKI infected in human PBMC assessed as inhibition of viral replication by ELISA; format: functional, organism-based; conditions: Human immunodeficiency virus 1, subtype B TEKI
[21] = test system: Rattus norvegicus; assay: Immunosuppressive activity in Sprague-Dawley rat […] model assessed as percent T-helper cells at 10 mg/kg, po administered once daily for 28 days by flow cytometry; format: functional
[22] = test system: Human immunodeficiency virus 1; assay: Antiviral activity against HIV1 subtype B WEJO infected in human PBMC assessed as inhibition of viral replication by ELISA; format: functional, organism-based; conditions: Human immunodeficiency virus 1, subtype B WEJO
[23] = test system: Human immunodeficiency virus 1; assay: Antiviral activity against LPV, APV, ATV, IDV, NFV, RTV, SQV, AZT, ddI, 3TC, d4T-resistant HIV-1 MDR3761 infected in human PBMC assessed as inhibition of viral replication by ELISA; format: functional, organism-based; conditions: Human immunodeficiency virus 1, MDR3761
[24] = test system: Human immunodeficiency virus 1; assay: Antiviral activity against HIV1 subtype B Ba-L infected in human PBMC assessed as inhibition of viral replication by ELISA; format: functional, organism-based; conditions: Human immunodeficiency virus 1, subtype B Ba-L
[25] = test system: Human immunodeficiency virus 1; assay: Antiviral activity against LPV, APV, ATV, IDV, NFV, RTV, SQV-resistant HIV-1 52-52 infected in human PBMC assessed as inhibition of viral replication by ELISA; format: functional, organism-based; conditions: Human immunodeficiency virus 1, 52-52
[26] = test system: Rattus norvegicus; assay: Immunosuppressive activity in Sprague-Dawley rat […] model assessed as IgM level at 25 mg/kg, po administered once daily for 28 days by ELISA; format: functional
[27] = test system: Human immunodeficiency virus 1; assay: Antiviral activity against HIV1 subtype EA CMU02 infected in human PBMC assessed as inhibition of viral replication by ELISA; format: functional, organism-based; conditions: Human immunodeficiency virus 1, subtype EA CMU02
[28] = test system: Human alphaherpesvirus 1; assay: Antiviral activity against Herpes simplex virus 1 McIntyre infected in human embryonic lung cells assessed as inhibition of viral replication; format: functional, organism-based; conditions: Human alphaherpesvirus 1, McIntyre
[29] = test system: Human immunodeficiency virus 1; assay: Antiviral activity against APV, ATV, IDV, LPV, NFV, RTV, SQV, AZT, ddI, 3TC, d4T-resistant HIV-1 MDR1385 infected in human PBMC assessed as inhibition of viral replication by ELISA; format: functional, organism-based; conditions: Human immunodeficiency virus 1, MDR1385
[30] = test system: Human immunodeficiency virus 1; assay: Antiviral activity against APV, ATV, IDV, LPV, NFV, RTV, SQV, 3TC, FTC, ABC, AZT, d4T, ddC, ddI, TDF, EFV, DLV, NVP-resistant HIV-1 MDR769 infected in human PBMC assessed as inhibition of viral replication by ELISA; format: functional, organism-based; conditions: Human immunodeficiency virus 1, MDR769
[31] = Cytotoxicity against african green monkey Vero cells; format: cell-based; conditions: chlorocebus sabaeus, read-out: TC50 (the source's name)
[32] = test system: Influenza A virus; assay: Antiviral activity against Influenza A virus H1N1 infected in MDCK cells assessed as inhibition of viral replication; format: functional, organism-based
[33] = test system: Rattus norvegicus; assay: Immunosuppressive activity in Sprague-Dawley rat […] model assessed as percent T lymphocytes at 10 mg/kg, po administered once daily for 28 days by flow cytometry; format: functional
[34] = test system: Human immunodeficiency virus 1; assay: Antiviral activity against HIV-1 NL4-3 infected in human TZB cells assessed as inhibition of viral entry at 0.5 to 2.5 uM after 2 hrs by RT-PCR; format: functional, organism-based
[35] = test system: Rattus norvegicus; assay: Immunosuppressive activity in Sprague-Dawley rat KHL model assessed as percent cytotoxic T cells at 10 mg/kg, po administered once daily for 28 days by flow cytometry; format: functional, T-cell
[36] = test system: Bovine viral diarrhea virus 1; assay: Antiviral activity against BVDV infected in […] cells assessed as inhibition of viral replication; format: functional, organism-based; conditions: Bovine viral diarrhea virus isolates and strains
[37] = test system: Rattus norvegicus; assay: Immunosuppressive activity in Sprague-Dawley rat KHL model assessed as percent T-helper cells at 50 mg/kg, po administered once daily for 28 days by flow cytometry; format: functional

Compound C/C=C/C[C@@H](C)[C@@H](O)[C@H]1C(=O)N[C@@H](CC)C(=O)N(C)[C@H](C)C(=O)N(CC)[C@@H](C(C)C)C(=O)N[C@@H](C(C)C)C(=O)N(C)[C@@H](CC(C)C)C(=O)N[C@@H](C)C(=O)N[C@H](C)C(=O)N(C)[C@@H](CC(C)C)C(=O)N(C)[C@@H](CC(C)C)C(=O)N(C)[C@@H](C(C)C)C(=O)N1C [ALISPORIVIR] has a CC50 [1] of 6.5 µM, a CC50 [2] of 0.6 µM and an IC50 [3] of 0.015 µM. It also gave an IC50 [4] of 0.01 µM, an IC50 [5] of 5.65 µM and an IC50 [6] of 0.82 µM. For the same compound, the IC50 [7] was 8.24 µM, the inhibition [8] was “inactive” and the IC50 [9] was 0.008 µM. The IC50 [10] was > 9.9 µM, the inhibition [11] was “Active” and the IC50 [12] was 6.25 µM. For the same compound, the Activity [13] was 34.5%, the IC50 [14] was 2.2 µM and the CC50 [15] was 25 µM. The IC50 [16] was 7.97 µM, the IC50 [17] was > 25 µM and the IC50 [18] was 0.099 µM. For the same compound, the IC50 [19] was 7.7 µM, the IC50 [20] was 4.41 µM and the Activity [21] was 29.8%. For the same compound, the IC50 [22] was 0.015 µM, the IC50 [23] was 0.16 µM and the IC50 [24] was 3.53 µM. The IC50 [25] was 3.12 µM, the deltaA [26] was 0.78 and the IC50 [27] was 5.66 µM. The IC50 [28] was > 25 µM, the IC50 [29] was 0.058 µM and the IC50 [30] was 0.012 µM. The CC50 [31] was 16.6 µM, the IC50 [32] was > 9.9 µM and the Activity [33] was 52.4%. For the same compound, the inhibition [34] was “inactive”, the Activity [35] was 17.6% and the IC50 [36] was > 25 µM. For the same compound, the Activity [37] was 32.8%.
